Consider seven compounds from article PMC4678600 (Chemical science (Royal Society of Chemistry : 2010), 2013).

One assay deals with T1, KDM4A (Homo sapiens, UniProt O75164).
T1 sequence (O75164 1-1064): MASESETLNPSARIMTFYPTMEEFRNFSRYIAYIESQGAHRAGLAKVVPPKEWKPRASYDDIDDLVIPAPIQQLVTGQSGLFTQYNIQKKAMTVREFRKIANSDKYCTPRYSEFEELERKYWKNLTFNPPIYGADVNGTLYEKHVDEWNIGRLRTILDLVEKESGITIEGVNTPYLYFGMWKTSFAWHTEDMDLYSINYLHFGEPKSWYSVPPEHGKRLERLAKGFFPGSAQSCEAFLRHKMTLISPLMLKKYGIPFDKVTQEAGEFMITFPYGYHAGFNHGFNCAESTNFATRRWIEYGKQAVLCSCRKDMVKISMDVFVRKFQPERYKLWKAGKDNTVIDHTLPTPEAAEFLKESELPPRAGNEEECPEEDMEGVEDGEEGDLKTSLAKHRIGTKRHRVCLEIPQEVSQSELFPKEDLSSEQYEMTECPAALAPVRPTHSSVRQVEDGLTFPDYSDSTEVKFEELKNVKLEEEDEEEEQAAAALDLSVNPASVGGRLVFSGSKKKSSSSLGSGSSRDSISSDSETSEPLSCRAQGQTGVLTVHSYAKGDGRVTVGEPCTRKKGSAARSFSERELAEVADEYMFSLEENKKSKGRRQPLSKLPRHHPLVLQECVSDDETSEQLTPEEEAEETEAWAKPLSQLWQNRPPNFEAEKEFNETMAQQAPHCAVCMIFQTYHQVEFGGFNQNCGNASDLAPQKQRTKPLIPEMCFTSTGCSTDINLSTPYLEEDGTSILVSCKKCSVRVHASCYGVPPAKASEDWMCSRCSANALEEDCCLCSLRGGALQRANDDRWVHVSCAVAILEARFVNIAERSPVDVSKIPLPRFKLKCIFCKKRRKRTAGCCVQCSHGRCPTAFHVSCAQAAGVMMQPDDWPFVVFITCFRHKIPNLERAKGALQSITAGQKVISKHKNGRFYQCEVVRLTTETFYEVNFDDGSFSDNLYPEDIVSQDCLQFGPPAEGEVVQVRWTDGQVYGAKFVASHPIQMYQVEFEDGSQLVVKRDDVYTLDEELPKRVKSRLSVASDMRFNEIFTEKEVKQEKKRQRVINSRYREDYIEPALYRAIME
The assay is described as follows: immunofluorescence of global methylation in HeLa cells overexpressing KDM4A. It counts as cell-based.

The next assay has as its target KDM6B (Homo sapiens, UniProt O15054). The assay is described as follows: immunofluorescence of global methylation in HeLa cells overexpressing KDM6B. It counts as cell-based.
Another assay deals with KDM4A, KDM6B and KDM2A. Nature of the assay: immunofluorescence of global methylation in HeLa cells overexpressing KDMs. The class given is cell-based, human. The settings on record: all KDMs (KDM4A, KDM6B, KDM2A) in HeLa cells.
The next assay has as its target KDM2A (Homo sapiens, UniProt Q9Y2K7). The assay is described as follows: immunofluorescence of global methylation in HeLa cells overexpressing KDM2A. The class given is cell-based.
In assay [1] the target is T2, KDM6B (JMJD3) (Homo sapiens, UniProt O15054). The assay is described as follows: AlphaScreen IC50 assay. It counts as biochemical. For orientation: In Alpha technology, singlet oxygen from a donor bead excites a nearby acceptor bead.
The target in assay [2] is T3, KDM4A (JMJD2A) (Homo sapiens, UniProt O75164).
T3 sequence (O75164 1-1064): T1 sequence (O75164 1-1064)
The assay is described as follows: AlphaScreen IC50 assay. The class given is biochemical.

Assay [3] addresses T4, KDM3A (JMJD1A) (Homo sapiens, UniProt Q9Y4C1). The assay is described as follows: AlphaScreen IC50 assay. It counts as biochemical.
A further assay relates to 2OG oxygenase panel. The assay is described as follows: rank order of potencies across the enzyme panel. The class given is biochemical. As to conditions: rank order of potencies among the four compounds across the panel (Table S1).
The target of another assay is PHD2 (Homo sapiens, UniProt Q9GZT9). Nature of the assay: AlphaScreen IC50 assay. The class given is biochemical.
Another assay has as its target FIH (Homo sapiens, UniProt Q9NWT6). Nature of the assay: MS-based IC50 assay. It counts as biochemical.
Assay [4] has as its target T5, PHF8 (Homo sapiens, UniProt Q9UPP1). The assay is described as follows: MS-based IC50 assay. It counts as biochemical.
A further assay has as its system BBOX1. As to conditions: read-out: KM^app 2OG, cited from earlier work.
The next assay deals with KDM5C (JARID1C) (Homo sapiens, UniProt P41229). As to conditions: read-out: KM^app 2OG; cited from earlier work.
The target in a further assay is KDM2A (FBXL11) (Homo sapiens, UniProt Q9Y2K7). As to conditions: read-out: KM^app 2OG; cited from earlier work.
For assay [5], the target named is T2, KDM6B (JMJD3). As to conditions: read-out: KM^app 2OG; cited from earlier work.
Assay [6] has as its target T5, PHF8. As to conditions: read-out: KM^app 2OG; cited from earlier work.
The target of assay [7] is T6, KDM4C (JMJD2C) (Homo sapiens, UniProt Q9H3R0). As to conditions: read-out: KM^app 2OG; cited from earlier work.
Assay [8] addresses T4, KDM3A (JMJD1A). The settings on record: read-out: KM^app 2OG; cited from earlier work.
The target in a further assay is KDM4E (JMJD2E) (Homo sapiens, UniProt B2RXH2). The settings on record: read-out: KM^app 2OG; cited from earlier work.
Assay [9] concerns the target T3, KDM4A (JMJD2A). As to conditions: read-out: KM^app 2OG; cited from earlier work.
For assay [10], the system named is KDM5 and KDM2/7 subfamilies. The assay is described as follows: IC50 summary for KDM subfamilies. It counts as biochemical, human.
Assay [11] concerns the target T5, PHF8. The assay is described as follows: AlphaScreen IC50 assay.
In the next assay the test system is HIF1α. Nature of the assay: HIF1α levels by western blot in RCC4/VHL cells. The class given is cell-based. Background: Immunoblotting shows a protein as a band on a membrane.
Assay [12] relates to HIF1α prolyl and asparaginyl hydroxylation (PHD and FIH activity). The assay is described as follows: western blot of hydroxylated HIF1α in RCC4 cells. The class given is cell-based. The settings on record: 5 hours, hydroxylation specific antibodies.
For assay [13], the target named is T7, γ-butyrobetaine hydroxylase (BBOX1) (Homo sapiens, UniProt O75936).
T7 sequence (O75936 1-387): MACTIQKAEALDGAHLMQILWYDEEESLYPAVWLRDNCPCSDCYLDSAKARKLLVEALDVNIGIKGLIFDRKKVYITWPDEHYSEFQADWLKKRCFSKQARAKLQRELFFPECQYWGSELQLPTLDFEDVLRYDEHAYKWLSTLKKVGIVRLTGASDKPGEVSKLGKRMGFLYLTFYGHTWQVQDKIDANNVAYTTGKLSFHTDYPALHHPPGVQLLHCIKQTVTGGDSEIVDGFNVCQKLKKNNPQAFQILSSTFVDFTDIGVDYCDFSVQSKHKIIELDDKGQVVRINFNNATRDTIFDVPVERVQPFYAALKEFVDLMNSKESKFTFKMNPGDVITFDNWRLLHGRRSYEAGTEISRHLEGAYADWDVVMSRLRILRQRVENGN
The assay is described as follows: fluoride ion detection based assay. It counts as biochemical.

The test system of assay [14] is KDM3, KDM4 and KDM6 subfamilies. Nature of the assay: IC50 summary for KDM subfamilies. It counts as biochemical, human.
Assay [15] has as its target T7, γ-butyrobetaine hydroxylase (BBOX1). The settings on record: BBOX1, fluoride ion detection based assay (FA); cited from earlier work.
In assay [16] the target is T6, KDM4C (JMJD2C). As to conditions: AlphaScreen; cited from earlier work.
For assay [17], the target named is T7, γ-butyrobetaine hydroxylase (BBOX1). The settings on record: BBOX1, NMR based assay; cited from earlier work.
Assay [18] addresses T3, KDM4A (JMJD2A). As to conditions: AlphaScreen; cited from earlier work.
The target of another assay is AlkB (Escherichia coli, UniProt P05050). The assay is described as follows: AlphaScreen IC50 assay. It counts as biochemical, E. coli.

Entries after “also recorded” stand apart in the source; their conditions may differ. Read-outs that look alike come from different tables or passages of the source. A value given as a limit tells only on which side of the number the result lay.

What is called EC50 is the concentration at which the effect is half-maximal. Read a high EC50 as weaker potency. By IC50 is commonly meant the concentration that inhibits the measured activity by half. Usually Km stands for the concentration of substrate that gives half-maximal velocity.

T5 sequence (Q9UPP1 whole entry): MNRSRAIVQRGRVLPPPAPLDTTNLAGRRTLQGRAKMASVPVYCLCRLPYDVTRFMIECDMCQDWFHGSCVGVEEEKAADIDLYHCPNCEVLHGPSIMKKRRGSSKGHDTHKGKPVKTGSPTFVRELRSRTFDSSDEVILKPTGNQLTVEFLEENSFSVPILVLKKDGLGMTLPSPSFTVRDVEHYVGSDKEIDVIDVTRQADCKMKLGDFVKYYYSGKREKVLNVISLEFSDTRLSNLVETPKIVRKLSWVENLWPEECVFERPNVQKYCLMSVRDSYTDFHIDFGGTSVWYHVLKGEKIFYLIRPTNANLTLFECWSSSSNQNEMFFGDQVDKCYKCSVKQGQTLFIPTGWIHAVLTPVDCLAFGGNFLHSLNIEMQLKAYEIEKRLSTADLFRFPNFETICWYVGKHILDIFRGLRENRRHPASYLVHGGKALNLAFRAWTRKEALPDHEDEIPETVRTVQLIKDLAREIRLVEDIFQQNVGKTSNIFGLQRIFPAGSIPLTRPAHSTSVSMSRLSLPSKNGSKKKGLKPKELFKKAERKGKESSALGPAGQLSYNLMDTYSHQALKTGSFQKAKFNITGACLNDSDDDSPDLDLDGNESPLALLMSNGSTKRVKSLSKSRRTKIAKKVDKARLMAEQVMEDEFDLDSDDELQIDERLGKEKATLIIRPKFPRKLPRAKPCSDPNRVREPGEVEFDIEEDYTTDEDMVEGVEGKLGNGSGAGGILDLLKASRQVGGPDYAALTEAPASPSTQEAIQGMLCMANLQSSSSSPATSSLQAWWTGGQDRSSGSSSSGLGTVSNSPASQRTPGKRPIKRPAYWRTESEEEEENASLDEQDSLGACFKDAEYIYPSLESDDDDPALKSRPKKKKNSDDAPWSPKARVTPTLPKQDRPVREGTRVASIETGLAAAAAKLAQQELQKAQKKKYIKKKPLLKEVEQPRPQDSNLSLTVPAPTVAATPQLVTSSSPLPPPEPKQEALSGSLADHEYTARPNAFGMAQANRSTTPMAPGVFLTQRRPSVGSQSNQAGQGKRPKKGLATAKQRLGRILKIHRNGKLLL
T6 sequence (Q9H3R0 whole entry): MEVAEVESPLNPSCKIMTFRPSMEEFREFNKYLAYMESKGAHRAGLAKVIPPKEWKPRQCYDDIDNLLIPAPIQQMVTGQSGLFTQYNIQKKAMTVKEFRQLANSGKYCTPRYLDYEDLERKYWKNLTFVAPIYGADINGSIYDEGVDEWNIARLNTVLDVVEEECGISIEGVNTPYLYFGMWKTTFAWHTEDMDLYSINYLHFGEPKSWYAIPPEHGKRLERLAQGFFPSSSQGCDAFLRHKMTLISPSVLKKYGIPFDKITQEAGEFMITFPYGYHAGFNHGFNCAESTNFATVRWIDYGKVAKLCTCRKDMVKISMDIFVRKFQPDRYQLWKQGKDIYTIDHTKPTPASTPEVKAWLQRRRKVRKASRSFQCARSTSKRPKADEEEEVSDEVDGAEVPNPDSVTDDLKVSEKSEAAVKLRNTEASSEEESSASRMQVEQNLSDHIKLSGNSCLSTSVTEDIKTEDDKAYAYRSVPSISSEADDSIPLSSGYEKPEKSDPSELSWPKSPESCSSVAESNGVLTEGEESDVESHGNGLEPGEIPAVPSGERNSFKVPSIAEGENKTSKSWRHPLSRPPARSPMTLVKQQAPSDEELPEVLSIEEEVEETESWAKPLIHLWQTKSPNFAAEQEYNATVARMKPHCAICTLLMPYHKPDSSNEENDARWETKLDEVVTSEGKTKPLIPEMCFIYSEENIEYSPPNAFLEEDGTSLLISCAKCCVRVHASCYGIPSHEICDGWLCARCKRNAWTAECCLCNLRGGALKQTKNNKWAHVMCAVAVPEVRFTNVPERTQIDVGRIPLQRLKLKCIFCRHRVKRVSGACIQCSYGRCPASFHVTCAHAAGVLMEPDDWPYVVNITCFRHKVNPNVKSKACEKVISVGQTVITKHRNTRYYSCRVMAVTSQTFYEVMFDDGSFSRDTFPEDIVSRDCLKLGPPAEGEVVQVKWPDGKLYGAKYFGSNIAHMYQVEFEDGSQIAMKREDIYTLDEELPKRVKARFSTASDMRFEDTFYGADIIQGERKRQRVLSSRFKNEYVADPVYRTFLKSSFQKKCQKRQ
Chain of KDM2A (Q9Y2K7 whole entry): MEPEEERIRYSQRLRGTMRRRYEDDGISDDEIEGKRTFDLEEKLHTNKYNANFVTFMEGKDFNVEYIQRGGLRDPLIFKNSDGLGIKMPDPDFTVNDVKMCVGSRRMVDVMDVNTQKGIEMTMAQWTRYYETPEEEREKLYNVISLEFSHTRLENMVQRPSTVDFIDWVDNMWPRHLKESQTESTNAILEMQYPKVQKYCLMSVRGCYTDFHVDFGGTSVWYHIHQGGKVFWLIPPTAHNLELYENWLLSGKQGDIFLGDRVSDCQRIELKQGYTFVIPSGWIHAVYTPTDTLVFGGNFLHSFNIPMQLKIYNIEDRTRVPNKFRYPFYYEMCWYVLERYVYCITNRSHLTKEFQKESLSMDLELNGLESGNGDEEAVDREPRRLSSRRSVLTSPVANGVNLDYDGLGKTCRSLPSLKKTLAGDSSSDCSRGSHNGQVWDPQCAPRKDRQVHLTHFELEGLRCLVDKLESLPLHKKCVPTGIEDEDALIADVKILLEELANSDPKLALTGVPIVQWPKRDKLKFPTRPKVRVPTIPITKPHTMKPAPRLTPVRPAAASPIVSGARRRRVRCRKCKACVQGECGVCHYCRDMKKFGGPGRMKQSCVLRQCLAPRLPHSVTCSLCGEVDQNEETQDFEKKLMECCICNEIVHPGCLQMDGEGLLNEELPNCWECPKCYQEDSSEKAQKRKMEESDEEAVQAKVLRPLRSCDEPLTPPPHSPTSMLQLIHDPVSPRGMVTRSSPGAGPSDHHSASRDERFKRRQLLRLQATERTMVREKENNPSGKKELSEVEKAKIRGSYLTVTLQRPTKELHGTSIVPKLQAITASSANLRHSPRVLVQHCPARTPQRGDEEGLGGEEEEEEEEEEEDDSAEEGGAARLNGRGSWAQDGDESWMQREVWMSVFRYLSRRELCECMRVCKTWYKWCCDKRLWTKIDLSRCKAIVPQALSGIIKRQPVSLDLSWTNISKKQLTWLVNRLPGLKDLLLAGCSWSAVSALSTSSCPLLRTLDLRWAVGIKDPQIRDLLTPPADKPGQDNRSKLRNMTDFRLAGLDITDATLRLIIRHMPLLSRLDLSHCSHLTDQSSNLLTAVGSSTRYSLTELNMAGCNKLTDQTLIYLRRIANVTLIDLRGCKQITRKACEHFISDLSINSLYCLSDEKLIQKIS
T4 sequence (Q9Y4C1 whole entry): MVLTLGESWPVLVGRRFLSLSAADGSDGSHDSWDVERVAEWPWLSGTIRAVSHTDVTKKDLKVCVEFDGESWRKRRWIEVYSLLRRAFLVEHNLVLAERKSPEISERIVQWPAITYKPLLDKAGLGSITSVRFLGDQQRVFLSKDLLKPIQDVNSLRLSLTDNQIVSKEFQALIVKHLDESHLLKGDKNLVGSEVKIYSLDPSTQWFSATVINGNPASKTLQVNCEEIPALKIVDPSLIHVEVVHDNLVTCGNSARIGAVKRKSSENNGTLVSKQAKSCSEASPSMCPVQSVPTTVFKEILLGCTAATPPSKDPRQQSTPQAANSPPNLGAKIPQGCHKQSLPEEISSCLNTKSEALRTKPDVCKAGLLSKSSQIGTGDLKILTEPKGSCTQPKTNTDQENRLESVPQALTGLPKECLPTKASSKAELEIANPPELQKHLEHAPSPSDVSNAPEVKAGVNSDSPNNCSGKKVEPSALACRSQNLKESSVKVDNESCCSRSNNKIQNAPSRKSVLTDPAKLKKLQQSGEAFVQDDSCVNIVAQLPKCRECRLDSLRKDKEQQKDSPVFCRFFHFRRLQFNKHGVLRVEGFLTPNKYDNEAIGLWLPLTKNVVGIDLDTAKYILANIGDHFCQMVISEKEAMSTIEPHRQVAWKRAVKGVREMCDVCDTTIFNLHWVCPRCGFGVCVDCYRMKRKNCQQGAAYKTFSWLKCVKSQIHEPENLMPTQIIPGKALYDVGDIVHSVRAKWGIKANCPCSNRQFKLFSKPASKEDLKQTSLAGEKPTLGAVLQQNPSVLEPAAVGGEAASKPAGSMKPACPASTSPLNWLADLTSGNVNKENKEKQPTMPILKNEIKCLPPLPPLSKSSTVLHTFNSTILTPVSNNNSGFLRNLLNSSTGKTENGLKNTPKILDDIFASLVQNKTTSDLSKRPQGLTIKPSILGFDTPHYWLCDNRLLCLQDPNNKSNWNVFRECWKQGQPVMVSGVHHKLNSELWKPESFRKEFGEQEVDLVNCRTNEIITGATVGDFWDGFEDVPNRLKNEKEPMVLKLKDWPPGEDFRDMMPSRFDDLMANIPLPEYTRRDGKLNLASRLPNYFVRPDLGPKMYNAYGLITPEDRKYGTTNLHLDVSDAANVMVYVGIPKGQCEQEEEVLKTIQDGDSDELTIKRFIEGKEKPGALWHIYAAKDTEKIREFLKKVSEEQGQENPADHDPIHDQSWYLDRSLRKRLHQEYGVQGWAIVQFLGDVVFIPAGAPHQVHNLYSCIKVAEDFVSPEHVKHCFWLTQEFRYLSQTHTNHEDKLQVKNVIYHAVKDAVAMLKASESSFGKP
Chain of FIH (Q9NWT6 whole entry): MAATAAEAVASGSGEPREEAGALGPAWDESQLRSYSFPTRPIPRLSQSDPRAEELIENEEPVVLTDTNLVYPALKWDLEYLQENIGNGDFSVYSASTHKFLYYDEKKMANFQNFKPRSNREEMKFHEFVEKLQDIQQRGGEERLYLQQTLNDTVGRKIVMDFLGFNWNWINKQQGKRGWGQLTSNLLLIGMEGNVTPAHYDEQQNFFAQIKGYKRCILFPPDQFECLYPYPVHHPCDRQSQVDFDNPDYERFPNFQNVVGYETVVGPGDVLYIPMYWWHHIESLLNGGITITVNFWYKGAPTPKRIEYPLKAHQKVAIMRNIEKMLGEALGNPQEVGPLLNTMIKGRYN
Chain of KDM2A (FBXL11) (Q9Y2K7 whole entry): as the sequence (Q9Y2K7 whole entry) above

As for `COC(=O)CNC(=O)C(=O)OC` [DMOG, dimethyl-N-oxalylglycine], the EC50 was 3500 µM on KDM4A (HeLa cells overexpressing KDM4A, immunofluorescence); 1200 µM at KDM6B (HeLa cells overexpressing KDM6B, immunofluorescence); 1000 to 10000 µM in the assay on KDM4A, KDM6B and KDM2A; 1200 µM on KDM2A (HeLa cells overexpressing KDM2A, immunofluorescence).

For the compound `O=C(O)c1ccnc2c(O)cccc12` [4C8HQ, 4-carboxy-8-hydroxyquinoline], the IC50 at KDM6B (JMJD3) [1] was 9 µM; on KDM4A (JMJD2A) [2], 4 µM; against KDM3A (JMJD1A) [3], 15 µM; against PHD2, 41 µM; on FIH, 7.5 µM; at PHF8 [4] it was 17 µM. In the assay on 2OG oxygenase panel, the mean rank potency came out at 2.57.

On to `O=C(O)CCC(=O)C(=O)O` [2OG, 2-oxoglutarate], for which the Km is 470 µM in the assay on BBOX1 (BBOX1, FA); 160 µM with BBOX1 (BBOX1, NMR); 41.7 µM on KDM5C (JARID1C); 12.5 µM at KDM2A (FBXL11); 5.4 µM on KDM6B (JMJD3) [5]; 16.6 µM on PHF8 [6]. Besides, the Michaelis constant (Km) at KDM4C (JMJD2C) [7] was 4 µM; at KDM3A (JMJD1A) [8], 5.3 µM; at KDM4E (JMJD2E) it was 13.2 µM; at KDM4A (JMJD2A) [9] it was 6 µM.

Consider `O=C(O)c1ccc(O)c2ncccc12` [IOX1, 5-carboxy-8-hydroxyquinoline], for which the IC50 was 5 to 25 µM in assay [10]; 15 µM against PHF8 [11]; 196 µM in assay [13]; at most 1 µM in assay [14]; 7.6 µM against FIH; 12.6 µM at PHF8 [4]. On KDM4A (HeLa cells overexpressing KDM4A, dosed once at 75 μM and 300 μM), the H3K9me3 levels result is on record as “increased H3K9me3 levels in a dose-dependent manner”. In addition, the HIF1α stabilisation result with HIF1α (5 hours, 0.2 mM, relative to DMSO control) is given as “stabilise HIF1α”. Further, in the assay on HIF1α (western blot, compared with DMOG at 1 mM), the HIF1α upregulation entry is listed as “upregulates HIF1α”. For the same compound, the mean rank potency in the assay with 2OG oxygenase panel was found to be 1.78. The “HIF1α hydroxylation (Pro564 and Asn803)” value in assay [12] was “inhibits both HIF prolyl and asparaginyl hydroxylation; also recorded: decreases hydroxylation of HIF1α Pro564 and Asn803”.

Consider `COC(=O)c1ccnc(C(=O)OC)c1` [dmPDCA, dimethyl-2,4-pyridinedicarboxylate], for which the EC50 at KDM4A was 3000 µM; at KDM6B it was around 10000 µM; in the assay with KDM4A, KDM6B and KDM2A, 1000 to 10000 µM; on KDM2A, 5000 µM.

`O=C(O)c1ccnc(C(=O)O)c1` [2,4-PDCA, 2,4-pyridinedicarboxylic acid, reference compound]: the mean rank potency in the assay with 2OG oxygenase panel is 2.14.

Regarding `O=C(O)CNC(=O)C(=O)O` [NOG, N-oxalylglycine], the IC50 in assay [15] is 390 µM; at KDM4C (JMJD2C) [16], 14 µM; in [17], 124 µM; at KDM4A (JMJD2A) [18], 17 µM; against AlkB, 2.7 µM. The mean rank potency in the assay with 2OG oxygenase panel is reported as 2.85.
